Here are results for two molecules from patent publication US6010478A, “Trans-mucosal particle delivery” (PowderJect Research Limited, priority 1995, dated 2000).

In data set [1] the test system is oral mucosa. As to the kind of experiment: Visual assessment of delivery sites for damage or irritation of mucosal tissues. It is filed as in vivo, human. Conditions: 3 mg particles 38-53 μm, needleless syringe, 24-48 hours after delivery, 14 subjects. How it is done: A randomized, double-blind, negatively controlled study was carried out in normal, healthy human subjects as follows. Initially, a single 3 mg dose of lignocaine HCL particles sized between 38 and 53 μm was delivered from a needleless syringe constructed in accordance with the invention. The lignocaine was delivered to the oral mucosa adjacent to the number 12 and 22 lateral incisors in 14 trial subjects. The delivery sites were then visually assessed for evidence of damage or irritation to the mucosal tissues.

Data set [2] deals with oral mucosa. The arrangement: species or system human. Particulars: in vivo. How it is done:
In a second study, a single 3.0 mg dose of lignocaine HCL particles (as above) was delivered using a needleless syringe, and a single 0.2 mL dose of 2% lignocaine HCL was delivered via needle-syringe injection. Pain associated with the administration of each treatment was scored in all 14 subjects using a 100 mm visual analogue scale immediately after each treatment, wherein 100% indicates a painful treatment, and 0% indicates a pain-free treatment. The needleless syringe employed in the study was operated using 40 bar helium driving gas to expel anaesthetic particles from a flexible, eversible dome-shaped membrane comprised of a 400 μm, 6 mm polyurethane film.

For data set [3], the system named is oral mucosa. Put plainly: Local anaesthesia: pain response to probing of treated oral mucosa, visual analogue scale. Particulars: 3.0 mg particles by needleless syringe. It is filed as in vivo, human. The method, then:
A randomized, double-blind study was then carried out as follows. Treatments were given to 14 subjects over the course of three visits. The treatments provided to the subjects in each visit were either a single 3.0 mg dose of Lignocaine HCL particles from the above-described needleless syringe device, or 0.0 mg (as a blinded negative control). Accordingly, treatments provided over the course of the three visits were either: two actual (3.0 mg) doses of the anaesthetic particles and one placebo; or two placebos and one actual (3.0 mg) dose. Pain stimulus was provided by probing oral mucosa with the back of a 27G dental needle, wherein the probe sequence was a probe on an untreated area of the mucosa, and then a probe on the treated area of the mucosa 1 minute post delivery. Again, the pain associated with the probe of the untreated and treated areas was scored on visual analogue scales using the above scoring methods immediately after each probe.

Data set [4] is described as follows: Serum testosterone pharmacokinetics after transmucosal (OralJect needleless syringe) or subcutaneous delivery. It is filed as in vivo, female New Zealand White rabbit. Particulars: for Cmax: 2 mg. The method, then: Testosterone (Sigma Chemicals) was milled and sieved into a particle size range (approximately 50-100 μm) suitable for transmucosal delivery from a needleless syringe using standard stainless steel mesh sieves. Female New Zealand White rabbit subjects weighing between 2.2-2.8 kg were used and allowed food and water ad libitum. The rabbits (n=8) were randomly assigned to one of two treatment groups. The first treatment group received testosterone (2.0 mg dose) as a suspension in 35% polyvinylpyrrolidone C-30 in water (6 mg/g testosterone concentration) via subcutaneous injection. The second treatment group received testosterone (2.0 mg dose of testosterone particles ranging from 53-75 μm) as two 1.0 mg transmucosal administrations from an OralJect™ needleless syringe device abutted against the cheek mucosa.
Whole blood (1.0 ml) was taken at times 0, 0.5, 1, 2, 4, 6, 8, 12, 24 and 48 hours, the serum aspirated and assayed for testosterone by radioimmunoassay (DPC). The OralJect™ device is a prototype device of the present invention that is actuated by helium at 40 bar.

Counter-ions that a name gives are not always drawn. Like-named read-outs stand apart in the source and are kept apart here.

By Tmax is commonly meant the time at which the peak concentration occurs.

With `CCN(CC)CC(=O)Nc1c(C)cccc1C` [lignocaine HCL, lignocaine hydrochloride], in data set [1], the “tissue reaction at delivery site” value is reported as “no evidence of any tissue reaction was observed”. For the same molecule, the “pain associated with administration (mean VAS score)” value in data set [2] was found to be 49.9%. For the same molecule, in data set [3] (1 minute post delivery), the “level of local anaesthesia relative to placebo treatments” value is recorded as “superior level of local anaesthesia relative to the placebo treatments”. Moreover, in data set [3] (probe 1 minute post delivery, untreated probe 55.6%, placebo 30.6%), the “pain response score to probe of treated area (mean VAS)” value turned out to be 15.0%.
Consider `C[C@]12CC[C@H]3[C@@H](CCC4=CC(=O)CC[C@@]43C)[C@@H]1CC[C@@H]2O` [testosterone], for which the “Cmax comparison between treatments” value in data set [4] (OralJect transmucosal vs subcutaneous, 2.0 mg, rabbit) is “not significantly different between treatments although there was a tendency for it to be lower following OralJect™ administration”. In data set [4] (OralJect transmucosal vs subcutaneous, rabbit), the “pharmacokinetic profile, transmucosal vs subcutaneous” value is recorded as “markedly different from that achieved following subcutaneous administration”. In addition, the “% BA (% bioavailability)” value in data set [4] (OralJect transmucosal, 2.0 mg, rabbit) is given as roughly 48.3%. The “time of second minor peak of serum testosterone” value in data set [4] (OralJect transmucosal, post administration, possible depot effect) turned out to be 12 h. Further, the Cmax in data set [4] (rabbit, serum, OralJect transmucosal (cheek mucosa), 2 x 1.0 mg particles 53-75 μm, helium 40 bar, rabbit, read-out: Cmax (mean maximum serum concentration)) is 0.0255 ± 0.0035 µM; in data set [4] (rabbit, serum, sc, subcutaneous injection, 2.0 mg suspension in 35% polyvinylpyrrolidone C-30 in water, rabbit, read-out: Cmax (mean maximum serum concentration)) it was 0.0348 ± 0.0069 µM; in data set [4] (rabbit, serum, sc, subcutaneous injection, 2.0 mg, rabbit, read-out: Cmax range), 0.0269 to 0.0552 µM. Further, the Tmax in data set [4] (rabbit, serum, OralJect transmucosal, 2.0 mg, in all animals) is 30 min.
